Key:
mice [1] = assay: Amphetamine-induced hyperlocomotion (open field); type: in vivo; conditions: drug 2 amphetamine SC
Protocol: Table 2, below, indicates the locomotor responses of mice treated with various combinations of alpha-2B receptor agonists and the psychostimulant amphetamine. Drug 1 was administered 30 minutes after the animal was placed in the open field. Drug 2 was administered subcutaneously (SC) at 45 minutes after the animal was placed in the open field (15 minutes after drug 1). AUC indicates the total amount of locomotor activity after administration of drug 2. “% decrease activity” indicates the percentage decrease in total activity relative to the Vehicle+Amphetamine group. ° indicates significant difference (P<0.05) relative to Vehicle+Amphetamine treated animals. * indicates significant difference (P<0.05) relative to Vehicle+Vehicle treated animals.
(§1) Amphetamine- or cocaine-induced hyperactivity. Mice were placed in an open field apparatus (FlexField, San Diego Instruments, San Diego, Calif.). After 30 minutes of habituation, they received a vehicle or haloperidol injection or injection of alpha-2B receptor agonist followed by an injection of amphetamine (2 mg/kg, s.c.) or cocaine (10 mg/kg, i.p.) at minute 45. Their activity levels were subsequently measured for another 1 hour post-injection. Total activity over each 5 minute bin (21 total bins) was added to establish activity curve over the 105 minute testing.
(§2) For i.p. administration, the compounds are formulated in H2O with 0.5% DMSO and given in a volume of 1 ml/kg body weight by injecting into the intraperitoneal cavity. For p.o. administration, the compounds are formulated in H2O with 0.5% DMSO and given in a volume of 2 ml/kg body weight using a 25-gauge, 1.5 inch gavage needle that is slowly inserted through the esophagus into the stomach.

[2] = test system: nigrostriatal-lesioned rats; assay: Nigrostriatal-lesion-induced rotational behavior following amphetamine administration; type: in vivo; conditions: relative to Vehicle+Amphetamine, drug 2 amphetamine SC
Protocol: Table 4, below, indicates the changes in rotational behavior in nigrostriatal-lesioned rats treated with various alpha-2B receptor agonists and the psychostimulant amphetamine. Drug 1 was administered 15 minutes before amphetamine, and 10 minutes post-amphetamine, the animals were placed into the rotometer for 30 or 60 minutes. “% decrease rotations” indicates the percentage decrease in total rotations relative to the Vehicle+Amphetamine group. ^⋄ indicates significant difference (P<0.05) relative to Vehicle+Amphetamine treated animals. * indicates significant difference (P<0.05) relative to Vehicle+Vehicle treated animals.
Amphetamine-induced rotational behavior. Pre-Apomorphine-screened (rotated) rats (with lesions ≧95% DA cell loss) were purchased from Charles Rivers Laboratories. Animals were given ˜4 days to acclimate prior to testing. All animals weighted 250-300 g at the beginning of the study. Animals were treated with various combinations of vehicle or alpha-2B receptor agonist and amphetamine.
Vehicle or alpha-2B receptor agonist was administered (p.o.) 15 minutes before amphetamine (2 mg/kg s.c.). Rotational behavior was assessed 15 minutes post-amphetamine administration and was monitored for 60 minutes using a Rotometer system from San Diego Instruments (San Diego, Calif.).
as §2

alpha-2A receptor = target: T1, alpha-2A receptor (Homo sapiens, UniProt P08913); assay: Alpha-2A receptor activity (efficacy relative to brimonidine); type: cell-based; conditions: in words; b7: lacks significant activity = less than 40% of the efficacy of brimonidine at alpha-2A
T1 sequence (P08913 1-465): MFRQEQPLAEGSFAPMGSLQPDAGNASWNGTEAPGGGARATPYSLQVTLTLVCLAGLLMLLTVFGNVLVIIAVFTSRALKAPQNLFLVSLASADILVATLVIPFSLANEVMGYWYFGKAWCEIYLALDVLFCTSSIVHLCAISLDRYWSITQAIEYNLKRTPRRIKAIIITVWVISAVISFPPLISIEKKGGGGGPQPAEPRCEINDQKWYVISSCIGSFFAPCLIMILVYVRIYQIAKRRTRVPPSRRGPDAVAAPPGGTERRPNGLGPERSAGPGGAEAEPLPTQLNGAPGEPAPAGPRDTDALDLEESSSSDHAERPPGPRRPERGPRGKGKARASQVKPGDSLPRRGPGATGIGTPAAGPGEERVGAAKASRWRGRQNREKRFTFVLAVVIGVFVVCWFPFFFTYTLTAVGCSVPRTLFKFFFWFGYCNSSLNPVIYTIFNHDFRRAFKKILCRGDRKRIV
From the text: The methods of the present invention use alpha-2 agonists lacking significant activity at the alpha-2A receptor subtype. An agonist lacks significant alpha-2A receptor activity if the agonist has less than 40% of the efficacy of brimonidine at the alpha-2A receptor subtype. Compounds of the invention include, therefore, alpha-2B receptor agonists lacking significant alpha-2A activity; alpha 2B/2C receptor agonists lacking significant alpha-2A activity; and alpha-2C receptor agonists lacking significant alpha-2A activity.
Efficacy, also known as intrinsic activity, is a measure of maximal receptor activation achieved by a compound and can be determined using any accepted assay of alpha-adrenergic receptor activation, such as a cAMP or Receptor Selection and Amplification Technology (RSAT). Efficacy is represented as a ratio or percentage of the maximal effect of the drug to the maximal effect of a standard agonist for each receptor subtype. Brimonidine, itself an alpha-2B receptor agonist (it is has 100% the efficacy of brimonidine at the alpha-2B adrenergic receptor), is used as the standard agonist for the alpha-2B adrenergic receptors.
Agonist activity can be characterized using any of a variety of routine assays, including, for example, Receptor Selection and Amplification Technology (RSAT) assays (Messier et al., Pharmacol. Toxicol. 76:308-11 (1995); cyclic AMP assays (Shimizu et al., J. Neurochem. 16:1609-1619 (1969)); and cytosensor microphysiometry assays (Neve et al., J. Biol. Chem. 267:25748-25753 (1992)). Such assays generally are performed using cells that naturally express only a single alpha-adrenergic receptor subtype, or using transfected cells expressing a single recombinant alpha-adrenergic receptor subtype. The adrenergic receptor can be a human receptor or homolog of a human receptor having a similar pharmacology.
The RSAT assay measures receptor-mediated loss of contact inhibition resulting in selective proliferation of receptor-containing cells in a mixed population of confluent cells. The increase in cell number is assessed with an appropriate detectable marker gene such as beta-galactosidase, if desired, in a high throughput or ultra high throughput assay format. Receptors that activate the G protein, Gq, elicit the proliferative response. Alpha-adrenergic receptors, which normally couple to Gi, activate the RSAT response when coexpressed with a hybrid Gq protein containing a Gi receptor recognition domain, designated Gq/i5. Conklin et al., Nature 363:274-6 (1993)).
As an example, an RSAT assay can be performed essentially as follows. NIH-3T3 cells are plated at a density of 2×10^6 cells in 15 cm dishes and maintained in Dulbecco's modified Eagle's medium supplemented with 10% calf serum. One day later, cells are cotransfected by calcium phosphate precipitation with mammalian expression plasmids encoding p-SV-β-galactosidase (5-10 μg), receptor (1-2 μg) and G protein (1-2 μg). Carrier DNA, for example 40 μg salmon sperm DNA, also can be included to increase transfection efficiency. Fresh media is added on the following day; one to two days later, cells are harvested and frozen in 50 assay aliquots. Transfected cells are thawed, and 100 μl of cells added to 100 μl aliquots of compound to be tested, with various concentrations assayed in triplicate, for example, in 96-well plates. Incubation continues for 72 to 96 hours at 37° C. After washing with phosphate-buffered saline, β-galactosidase activity is determined by adding 200 μl of chromogenic substrate (3.5 mM O-nitrophenyl-β-D-galactopyranoside/0.5% NP-40 in phosphate buffered saline), incubating overnight at 30° C., and measuring optical density at 420 nm. The absorbancy is a measure of enzyme activity, which depends on cell number and reflects receptor-mediated cell proliferation. The EC50 and maximal effect (i.e., efficacy) of each drug at each receptor is determined.

mice [3] = assay: Cocaine-induced hyperlocomotion (open field); type: in vivo; conditions: drug 2 cocaine SC; for % DECREASE ACTIVITY: relative to Vehicle+Cocaine
Protocol: Table 3, below, indicates the locomotor responses of mice treated with various combinations of alpha-2B receptor agonists and the psychostimulant cocaine. Drug 1 was administered 30 minutes after the animal was placed in the open field. Drug 2 was administered subcutaneously (SC) at 45 minutes after the animal was placed in the open field (15 minutes after drug 1). AUC indicates the total amount of locomotor activity after administration of drug 2. “% decrease activity” indicates the percentage decrease in total activity relative to the Vehicle+Cocaine group. ° indicates significant difference (P<0.05) relative to Vehicle+Cocaine treated animals. * indicates significant difference (P<0.05) relative to Vehicle+Vehicle treated animals.
as §1, §2

In the case of `S=c1[nH]cc(CC2CC=CC2)[nH]1` [Compound D], the “% DECREASE ACTIVITY REL TO VEH + AMPH” value (mice [1]; drug 1 0.01 mg/kg PO) is reported as 14% *, the “TOTAL ACTIVITY POST-AMPHETAMINE (AUC)” value (mice [1]; drug 1 0.01 mg/kg PO) is reported as 10664.0 ± 786.2 and the “% DECREASE ACTIVITY REL TO VEH + AMPH” value (mice [1]; drug 1 0.03 mg/kg PO) is reported as 51% ^⋄. The “TOTAL ACTIVITY POST-AMPHETAMINE (AUC)” value (mice [1]; drug 1 0.03 mg/kg PO) was 5987.5 ± 1369, the “% DECREASE ACTIVITY REL TO VEH + AMPH” value (mice [1]; drug 1 0.1 mg/kg PO) was 43% ^⋄ * and the “TOTAL ACTIVITY POST-AMPHETAMINE (AUC)” value (mice [1]; drug 1 0.1 mg/kg PO) was 6992.5 ± 693.1. For the same molecule, the “% DECREASE ACTIVITY REL TO VEH + AMPH” value (mice [1]; drug 1 1 mg/kg PO) was 62% ^⋄, the “TOTAL ACTIVITY POST-AMPHETAMINE (AUC)” value (mice [1]; drug 1 1 mg/kg PO) was 4650.0 ± 628.9 and the “% DECREASE ROTATIONS” value ([2]; drug 1 0.1 mg/kg PO) was 51% ^⋄ *. The “% DECREASE ROTATIONS” value ([2]; drug 1 1 mg/kg PO) was 60% ^⋄ * and the alpha-2A receptor activity (alpha-2A receptor) was “lack significant alpha-2A receptor activity”.
For `O=C1c2ccccc2CC[C@H]1Cc1c[nH]c(=S)[nH]1` [Compound E], the “% DECREASE ACTIVITY REL TO VEH + AMPH” value (mice [1]; drug 1 0.01 mg/kg PO) was 15% *, the “TOTAL ACTIVITY POST-AMPHETAMINE (AUC)” value (mice [1]; drug 1 0.01 mg/kg PO) was 11419.2 ± 550.4 and the “% DECREASE ACTIVITY REL TO VEH + AMPH” value (mice [1]; drug 1 0.03 mg/kg PO) was 58% ^⋄. The “TOTAL ACTIVITY POST-AMPHETAMINE (AUC)” value (mice [1]; drug 1 0.03 mg/kg PO) was 5616.8 ± 618.2, the “% DECREASE ACTIVITY REL TO VEH + AMPH” value (mice [1]; drug 1 0.1 mg/kg PO) was 66% ^⋄ and the “TOTAL ACTIVITY POST-AMPHETAMINE (AUC)” value (mice [1]; drug 1 0.1 mg/kg PO) was 4623.8 ± 1166.7. For the same molecule, the “% DECREASE ACTIVITY REL TO VEH + AMPH” value (mice [1]; drug 1 1 mg/kg PO) was 49% ^⋄ *, the “TOTAL ACTIVITY POST-AMPHETAMINE (AUC)” value (mice [1]; drug 1 1 mg/kg PO) was 6867.3 ± 979.3 and the “% DECREASE ACTIVITY REL TO VEH + AMPH” value (mice [1]; drug 1 10 mg/kg PO) was 55% ^⋄. The “TOTAL ACTIVITY POST-AMPHETAMINE (AUC)” value (mice [1]; drug 1 10 mg/kg PO) was 6026.0 ± 1007.9, the “TOTAL ACTIVITY POST-COCAINE (AUC)” value (mice [3]; drug 1 0.01 mg/kg PO) was 5036.5 ± 464.2 and the “TOTAL ACTIVITY POST-COCAINE (AUC)” value (mice [3]; drug 1 0.03 mg/kg PO) was 5033.5 ± 503.8. For the same molecule, the “TOTAL ACTIVITY POST-COCAINE (AUC)” value (mice [3]; drug 1 0.1 mg/kg PO) was 6263.0 ± 436.6, the “TOTAL ACTIVITY POST-COCAINE (AUC)” value (mice [3]; drug 1 0.3 mg/kg PO) was 3662.1 ± 1458.2 and the “% DECREASE ACTIVITY” value (mice [3]; drug 1 0.01 mg/kg PO) was 52% ^⋄ *. The “% DECREASE ACTIVITY” value (mice [3]; drug 1 0.03 mg/kg PO) was 52% ^⋄ *, the “% DECREASE ACTIVITY” value (mice [3]; drug 1 0.1 mg/kg PO) was 40% ^⋄ * and the “% DECREASE ACTIVITY” value (mice [3]; drug 1 0.3 mg/kg PO) was 65% ^⋄. The “% DECREASE ROTATIONS” value ([2]; drug 1 0.3 mg/kg PO) was 58% ^⋄ * and the alpha-2A receptor activity (alpha-2A receptor) was “lack significant alpha-2A receptor activity”.
For `Clc1cccc(CNC2=NCCN2)c1Cl` [Compound F], the “% DECREASE ACTIVITY REL TO VEH + AMPH” value (mice [1]; drug 1 0.03 mg/kg IP) was 26% ^⋄ *, the “TOTAL ACTIVITY POST-AMPHETAMINE (AUC)” value (mice [1]; drug 1 0.03 mg/kg IP) was 9933.0 ± 1898.7 and the “% DECREASE ACTIVITY REL TO VEH + AMPH” value (mice [1]; drug 1 0.3 mg/kg IP) was 29% ^⋄ *. The “TOTAL ACTIVITY POST-AMPHETAMINE (AUC)” value (mice [1]; drug 1 0.3 mg/kg IP) was 9442.3 ± 1306.7, the “% DECREASE ACTIVITY REL TO VEH + AMPH” value (mice [1]; drug 1 1 mg/kg IP) was 45% ^⋄ and the “TOTAL ACTIVITY POST-AMPHETAMINE (AUC)” value (mice [1]; drug 1 1 mg/kg IP) was 7437.8 ± 1812.4. For the same molecule, the “% DECREASE ACTIVITY REL TO VEH + AMPH” value (mice [1]; drug 1 3 mg/kg IP) was 62% ^⋄, the “TOTAL ACTIVITY POST-AMPHETAMINE (AUC)” value (mice [1]; drug 1 3 mg/kg IP) was 5169.0 ± 1481.4 and the alpha-2A receptor activity (alpha-2A receptor) was “lack significant alpha-2A receptor activity”.
With `O=C(CCCN1CCC(O)(c2ccc(Cl)cc2)CC1)c1ccc(F)cc1` [Haloperidol, reference compound] the “% DECREASE ACTIVITY REL TO VEH + AMPH” value (mice [1]; drug 1 0.2 mg/kg IP) was 91% ^⋄ * and the “TOTAL ACTIVITY POST-AMPHETAMINE (AUC)” value (mice [1]; drug 1 0.2 mg/kg IP) was 1123.2 ± 280.1.

Source: patent publication US20110160265A1, “METHOD OF TREATING MOTOR DISORDERS WITH ALPHA-2B ADRENERGIC RECEPTOR AGONISTS” (priority 2007, published 2011)
